Columns and labels:
barnyardgrass [1] = test: Test A preemergence; format: in vivo, Echinochloa crus-galli; conditions: Echinochloa crus-galli, pre-emergence, 240 h, 0 to 100 scale (0 no effect, 100 complete control), read-out: Plant response rating, Barnyardgrass
How it was run: (§1)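 Test chemicals in a non-phytotoxic solvent with surfactant were applied as a directed soil spray preemergence to seeds sown in loam/sand. Postemergence sprays went to plants 2–10 cm tall at the one- to two-leaf stage. A dash means no result.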

barnyardgrass [2] = test: Test A postemergence; format: in vivo, Echinochloa crus-galli; conditions: Echinochloa crus-galli, post-emergence, 240 h, 0 to 100 scale (0 no effect, 100 complete control), approx. 10 d, read-out: Plant response rating, Barnyardgrass
How it was run: as §1

wheat = test: Test A postemergence; format: in vivo, Triticum aestivum; conditions: Triticum aestivum, post-emergence, 240 h, 0 to 100 scale (0 no effect, 100 complete control), approx. 10 d, read-out: Plant response rating, Wheat
How it was run: as §1

corn = test: Test A postemergence; format: in vivo, Zea mays; conditions: Zea mays, post-emergence, 240 h, 0 to 100 scale (0 no effect, 100 complete control), approx. 10 d
How it was run: as §1

rice = test: Test B flooded paddy test; format: in vivo, Oryza sativa; conditions: Oryza sativa, 360 h, 125 g ai/ha, applied to paddy water at 2-leaf stage, visual rating after 13 to 15 d, scale 0 (no effect) to 100 (complete control), read-out: Plant response rating, Rice, Flood
How it was run: (§2)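 Pots were flooded to 3 cm above the soil at treatment, and compounds were applied directly into the paddy water. That depth was held throughout. After 13 to 15 d in a greenhouse, plants were rated visually against untreated controls.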

sedge, umbrella = test: Test B flooded paddy test; format: in vivo, Cyperus difformis; conditions: Cyperus difformis, 360 h, 125 g ai/ha, applied to paddy water at 2-leaf stage, visual rating after 13 to 15 d, scale 0 (no effect) to 100 (complete control), read-out: Plant response rating, Sedge, Umbrella, Flood
How it was run: as §2

barnyardgrass [3] = test: Test B flooded paddy test; format: in vivo, Echinochloa crus-galli; conditions: Echinochloa crus-galli, 360 h, 125 g ai/ha, applied to paddy water at 2-leaf stage, visual rating after 13 to 15 d, scale 0 (no effect) to 100 (complete control), read-out: Plant response rating, Barnyardgrass, Flood
How it was run: as §2

blackgrass = test: Test C postemergence; format: in vivo, Alopecurus myosuroides
How it was run: (§3)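 Seeds were planted in loam soil plus sand and sprayed preemergence. In parallel, potted plants in a peat-based medium were sprayed postemergence at 2 to 18 cm (1- to 4-leaf stage). Compounds were formulated in non-phytotoxic solvent with surfactant.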

ryegrass, Italian = test: Test C postemergence; format: in vivo, Lolium multiflorum
How it was run: as §3

wheat (winter wheat) = test: Test C postemergence; format: in vivo, Triticum aestivum
How it was run: as §3

foxtail, giant = test: Test C postemergence; format: in vivo, Setaria faberii
How it was run: as §3

lambsquarters = test: Test C postemergence; format: in vivo, Chenopodium album
How it was run: as §3

morningglory = test: Test C postemergence; format: in vivo, Ipomoea coccinea
How it was run: as §3

nutsedge, yellow = test: Test C postemergence; format: in vivo, Cyperus esculentus
How it was run: as §3

pigweed = test: Test C postemergence; format: in vivo, Amaranthus retroflexus
How it was run: as §3

oilseed rape = test: Test C postemergence; format: in vivo, Brassica napus
How it was run: as §3

waterhemp = test: Test C postemergence; format: in vivo, Amaranthus rudis
How it was run: as §3

chickweed = test: Test C postemergence; format: in vivo, Stellaria media
How it was run: as §3

oat, wild = test: Test C postemergence; format: in vivo, Avena fatua
How it was run: as §3

kochia = test: Test C postemergence; format: in vivo, Kochia scoparia
How it was run: as §3

## CCc1nc(-c2ccc(C(F)(F)F)cc2)nn1Cc1ccnc(C(F)(F)F)c1 [Compound 1, 4-[[5-ethyl-3-[4-(trifluoromethyl)phenyl]-1H-1,2,4-triazol-1-yl]methyl]-2-(trifluoromethyl)pyridine]
Barnyardgrass [1]; 125 g ai/ha
  pest or weed control at 125 g/ha: 80%
Barnyardgrass [1]; 500 g ai/ha, approx. 10 d
  pest or weed control at 500 g/ha: 90%
Barnyardgrass [2]; 125 g ai/ha
  pest or weed control at 125 g/ha: 80%
Barnyardgrass [2]; 500 g ai/ha
  pest or weed control at 500 g/ha: 90%
wheat; 125 g ai/ha
  plant injury at 125 g/ha: 30%
wheat; 500 g ai/ha
  plant injury at 500 g/ha: 60%
corn; 125 g ai/ha
  Corn plant response rating (crop injury, 0 = no effect, 100 = complete kill) at 125 g/ha: 30%
corn; 500 g ai/ha
  Corn plant response rating (crop injury, 0 = no effect, 100 = complete kill) at 500 g/ha: 80%
rice
  plant injury at 125 g/ha: 25%
sedge, umbrella
  pest or weed control at 125 g/ha: 75%
Barnyardgrass [3]
  pest or weed control at 125 g/ha: 40%
blackgrass; 31 g ai/ha
  Plant response rating (scale of 0 to 100 where 0 is no effect and 100 is complete control): 5
blackgrass; 62 g ai/ha
  Plant response rating (scale of 0 to 100 where 0 is no effect and 100 is complete control): 5
blackgrass; 125 g ai/ha
  Plant response rating (scale of 0 to 100 where 0 is no effect and 100 is complete control): 15
blackgrass; 250 g ai/ha
  Plant response rating (scale of 0 to 100 where 0 is no effect and 100 is complete control): 35
ryegrass, Italian; 31 g ai/ha
  Plant response rating (scale of 0 to 100 where 0 is no effect and 100 is complete control): 5
ryegrass, Italian; 62 g ai/ha
  Plant response rating (scale of 0 to 100 where 0 is no effect and 100 is complete control): 5
ryegrass, Italian; 125 g ai/ha
  Plant response rating (scale of 0 to 100 where 0 is no effect and 100 is complete control): 5
ryegrass, Italian; 250 g ai/ha
  Plant response rating (scale of 0 to 100 where 0 is no effect and 100 is complete control): 5
Wheat (winter wheat); 31 g ai/ha
  Plant response rating (scale of 0 to 100 where 0 is no effect and 100 is complete control): 10
Wheat (winter wheat); 62 g ai/ha
  Plant response rating (scale of 0 to 100 where 0 is no effect and 100 is complete control): 10
Wheat (winter wheat); 125 g ai/ha
  Plant response rating (scale of 0 to 100 where 0 is no effect and 100 is complete control): 15
Wheat (winter wheat); 250 g ai/ha
  Plant response rating (scale of 0 to 100 where 0 is no effect and 100 is complete control): 20
foxtail, giant; 31 g ai/ha
  Plant response rating (scale of 0 to 100 where 0 is no effect and 100 is complete control): 35
foxtail, giant; 62 g ai/ha
  Plant response rating (scale of 0 to 100 where 0 is no effect and 100 is complete control): 35
foxtail, giant; 125 g ai/ha
  Plant response rating (scale of 0 to 100 where 0 is no effect and 100 is complete control): 55
foxtail, giant; 250 g ai/ha
  Plant response rating (scale of 0 to 100 where 0 is no effect and 100 is complete control): 55
lambsquarters; 31 g ai/ha
  Plant response rating (scale of 0 to 100 where 0 is no effect and 100 is complete control): 70
lambsquarters; 62 g ai/ha
  Plant response rating (scale of 0 to 100 where 0 is no effect and 100 is complete control): 70
lambsquarters; 125 g ai/ha
  Plant response rating (scale of 0 to 100 where 0 is no effect and 100 is complete control): 75
lambsquarters; 250 g ai/ha
  Plant response rating (scale of 0 to 100 where 0 is no effect and 100 is complete control): 80
morningglory; 31 g ai/ha
  Plant response rating (scale of 0 to 100 where 0 is no effect and 100 is complete control): 60
morningglory; 62 g ai/ha
  Plant response rating (scale of 0 to 100 where 0 is no effect and 100 is complete control): 70
morningglory; 125 g ai/ha
  Plant response rating (scale of 0 to 100 where 0 is no effect and 100 is complete control): 70
morningglory; 250 g ai/ha
  Plant response rating (scale of 0 to 100 where 0 is no effect and 100 is complete control): 95
nutsedge, yellow; 31 g ai/ha
  Plant response rating (scale of 0 to 100 where 0 is no effect and 100 is complete control): 5
nutsedge, yellow; 62 g ai/ha
  Plant response rating (scale of 0 to 100 where 0 is no effect and 100 is complete control): 5
nutsedge, yellow; 125 g ai/ha
  Plant response rating (scale of 0 to 100 where 0 is no effect and 100 is complete control): 5
nutsedge, yellow; 250 g ai/ha
  Plant response rating (scale of 0 to 100 where 0 is no effect and 100 is complete control): 10
pigweed; 31 g ai/ha
  Plant response rating (scale of 0 to 100 where 0 is no effect and 100 is complete control): 50
pigweed; 62 g ai/ha
  Plant response rating (scale of 0 to 100 where 0 is no effect and 100 is complete control): 98
pigweed; 125 g ai/ha
  Plant response rating (scale of 0 to 100 where 0 is no effect and 100 is complete control): 98
pigweed; 250 g ai/ha
  Plant response rating (scale of 0 to 100 where 0 is no effect and 100 is complete control): 100
Oilseed rape; Oilsee Rape, 250 g ai/ha
  Plant response rating (scale of 0 to 100 where 0 is no effect and 100 is complete control): 90
Oilseed rape; Oilseed Rape, 31 g ai/ha
  Plant response rating (scale of 0 to 100 where 0 is no effect and 100 is complete control): 50
Oilseed rape; Oilseed Rape, 62 g ai/ha
  Plant response rating (scale of 0 to 100 where 0 is no effect and 100 is complete control): 70
Oilseed rape; Oilseed Rape, 125 g ai/ha
  Plant response rating (scale of 0 to 100 where 0 is no effect and 100 is complete control): 80
waterhemp; 31 g ai/ha
  Plant response rating (scale of 0 to 100 where 0 is no effect and 100 is complete control): 85
waterhemp; 62 g ai/ha
  Plant response rating (scale of 0 to 100 where 0 is no effect and 100 is complete control): 85
waterhemp; 125 g ai/ha
  Plant response rating (scale of 0 to 100 where 0 is no effect and 100 is complete control): 90
waterhemp; 250 g ai/ha
  Plant response rating (scale of 0 to 100 where 0 is no effect and 100 is complete control): 90
chickweed; 31 g ai/ha
  Plant response rating (scale of 0 to 100 where 0 is no effect and 100 is complete control): 60
chickweed; 62 g ai/ha
  Plant response rating (scale of 0 to 100 where 0 is no effect and 100 is complete control): 85
chickweed; 125 g ai/ha
  Plant response rating (scale of 0 to 100 where 0 is no effect and 100 is complete control): 85
chickweed; 250 g ai/ha
  Plant response rating (scale of 0 to 100 where 0 is no effect and 100 is complete control): 95
oat, wild; 31 g ai/ha
  Plant response rating (scale of 0 to 100 where 0 is no effect and 100 is complete control): 5
oat, wild; 62 g ai/ha
  Plant response rating (scale of 0 to 100 where 0 is no effect and 100 is complete control): 10
oat, wild; 125 g ai/ha
  Plant response rating (scale of 0 to 100 where 0 is no effect and 100 is complete control): 15
oat, wild; 250 g ai/ha
  Plant response rating (scale of 0 to 100 where 0 is no effect and 100 is complete control): 25
kochia; 31 g ai/ha
  Plant response rating (scale of 0 to 100 where 0 is no effect and 100 is complete control): 85
kochia; 62 g ai/ha
  Plant response rating (scale of 0 to 100 where 0 is no effect and 100 is complete control): 85
kochia; 125 g ai/ha
  Plant response rating (scale of 0 to 100 where 0 is no effect and 100 is complete control): 90
kochia; 250 g ai/ha
  Plant response rating (scale of 0 to 100 where 0 is no effect and 100 is complete control): 90

Reference: US10681909B2, “Herbicidal triazoles” (FMC Corporation, priority 2014, dated 2020)
